In patent US20140155406A1, “4-IMIDAZOPYRIDAZIN-1-YL-BENZAMIDES AND 4-IMIDAZOTRIAZIN-1-YL-BENZAMIDES BTK INHIBITORS” (priority 2011, published 2014):

Tests used:
Btk enzyme (His-Btk) = target: T1, Btk enzyme (His-Btk) (Homo sapiens, UniProt Q06187); experiment: Btk enzyme activity, IMAP fluorescence polarization assay; format: biochemical; settings: 60 min pre-incubation, 5 μM ATP (Km); bin bounds given in nM
T1 construct: His; purchased Millipore 14-552
Source text: Inhibition of kinase activity can be measured using the Immobilized Metal Assay for Phosphochemicals (IMAP) assay. IMAP is a homogeneous fluorescence polarization (FP) assay based on affinity capture of phosphorylated peptide substrates. IMAP uses fluorescein-labeled peptide substrates that, upon phosphorylation by a protein kinase, bind to so-called IMAP nanoparticles, which are derivatized with trivalent metal complexes. Binding causes a change in the rate of the molecular motion of the peptide, and results in an increase in the FP value observed for the fluorescein label attached to the substrate peptide (Gaudet et al. A homogeneous fluorescence polarization assay adaptable for a range of protein serine/threonine and tyrosine kinases. J. Biomol. Screen (2003) 8, 164-175).
Btk enzyme activity is measured using the IMAP (immobilized metal ion affinity-based fluorescence polarization) assay as outlined below.
Btk enzyme (His-Btk (Millipore catalog#14-552), is diluted to 0.4 U/mL in KR buffer (10 mM Tris-HCl, 10 mM MgCl2, 0.01% Tween-20, 0.05% NaN3, 1 mM DTT, 2 mM MnCl2, pH 7.2).
Serial dilution log 10 from 2 mM to 63.2 nM of test compounds are made in 100% DMSO. The dilutions in DMSO are then diluted 50-fold in KR-buffer. Final compound concentration range in the assay from 10 μM to 0.316 nM.
5 μL/well of test compound in KR buffer (final DMSO concentration in the assay is 1%) is mixed with 5 μl/well of 0.4 U/mL Btk enzyme (final concentration in the assay is 0.1 U/mL). Test compounds and Btk enzyme are pre-incubated 60 minutes at room temperature, before adding 5 μL/well of 200 nM Fluorescin labeled substrate peptide (Blk/Lyntide substrate, e.g. #R7188/#R7233, Molecular Devices) in KR-buffer. Final peptide substrate concentration in assay is 50 nM. The kinase assay is started by adding 5 μL/well of 20 μM ATP in KR-buffer (final ATP concentration is 5 μM ATP, Km ATP in Btk IMAP assay). Following incubation for 2 h at room temperature the enzyme reaction is stopped by adding 40 μL/well IMAP Progressive Binding Solution (according to suppliers (Molecular Devices) protocol using 75% 1× buffer A and 25% 1× buffer B with 1:600 Progressive Binding Solution). After 60 min incubation at room temperature in the dark the FP signal is read. Fluorescence at 535 nm is measured using parallel and perpendicular filters to determine differences in rotation due to binding of the phosphorylated substrate peptide to the beads. Values are calculated as percentage of the difference in readout (ΔmPi) of the controls with and without ATP. EC50 values are determined by curve fitting of the experimental results using Activity Base.

Lck enzyme = target: T2, Lck enzyme (Homo sapiens, UniProt P06239); experiment: Lck enzyme activity, IMAP fluorescence polarization assay; format: biochemical; settings: 60 min pre-incubation, 6 μM ATP (Km)
T2 construct: purchased Millipore 14-442
T2 sequence (P06239 whole entry): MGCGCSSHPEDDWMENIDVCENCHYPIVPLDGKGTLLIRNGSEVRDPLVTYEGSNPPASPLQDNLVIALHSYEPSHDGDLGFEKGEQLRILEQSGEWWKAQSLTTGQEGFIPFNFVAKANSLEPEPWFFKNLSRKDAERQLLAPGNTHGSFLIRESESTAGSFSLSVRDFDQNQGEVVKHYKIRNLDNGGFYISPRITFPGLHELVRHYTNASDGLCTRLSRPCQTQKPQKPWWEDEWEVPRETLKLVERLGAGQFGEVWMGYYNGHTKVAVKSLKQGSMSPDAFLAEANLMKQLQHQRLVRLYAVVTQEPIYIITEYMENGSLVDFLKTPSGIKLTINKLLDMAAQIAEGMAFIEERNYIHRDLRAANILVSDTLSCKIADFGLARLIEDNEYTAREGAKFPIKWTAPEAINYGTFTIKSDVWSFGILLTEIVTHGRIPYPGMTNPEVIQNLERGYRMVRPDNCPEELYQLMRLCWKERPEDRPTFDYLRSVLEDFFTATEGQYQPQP

T1 sequence (Q06187 whole entry): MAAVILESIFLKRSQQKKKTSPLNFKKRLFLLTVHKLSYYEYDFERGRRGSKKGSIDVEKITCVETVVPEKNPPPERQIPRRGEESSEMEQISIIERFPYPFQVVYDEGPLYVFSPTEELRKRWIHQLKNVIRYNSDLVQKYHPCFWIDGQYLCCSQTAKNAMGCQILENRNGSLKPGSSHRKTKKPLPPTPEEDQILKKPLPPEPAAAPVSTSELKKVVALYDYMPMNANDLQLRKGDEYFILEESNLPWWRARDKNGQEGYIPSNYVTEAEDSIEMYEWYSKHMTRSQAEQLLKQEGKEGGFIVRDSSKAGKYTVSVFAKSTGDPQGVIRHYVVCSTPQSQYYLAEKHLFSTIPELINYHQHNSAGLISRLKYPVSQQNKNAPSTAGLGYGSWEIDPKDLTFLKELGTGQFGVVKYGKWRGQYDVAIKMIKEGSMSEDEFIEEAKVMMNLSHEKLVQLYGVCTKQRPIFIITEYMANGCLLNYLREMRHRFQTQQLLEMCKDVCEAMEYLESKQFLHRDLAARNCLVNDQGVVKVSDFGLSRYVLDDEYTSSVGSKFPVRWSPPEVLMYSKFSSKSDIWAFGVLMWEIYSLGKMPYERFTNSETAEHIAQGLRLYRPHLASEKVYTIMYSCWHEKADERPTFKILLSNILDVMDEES

EC50 (Btk enzyme (His-Btk)) | EC50 (Lck enzyme) | SMILES
< 10 nM | ≥ 1000 nM | CC#CC(=O)N1CCCC[C@H]1c1nc(-c2ccc(C(=O)Nc3cc(C(F)(F)F)ccn3)cc2)c2c(C)nccn12 [Example 29, (S)-4-(3-(1-but-2-ynoylpiperidin-2-yl)-8-methylimidazo[1,5-a]pyrazin-1-yl)-N-(4-(trifluoromethyl)pyridin-2-yl)benzamide]
< 10 nM | ≥ 1000 nM | CCCc1ccnc(NC(=O)c2ccc(-c3nc([C@@H]4CCCCN4C(=O)/C=C/CN4CCCC4)n4ccnc(C)c34)cc2)c1 [Example 35, (S,E)-4-(8-methyl-3-(1-(4-(pyrrolidin-1-yl)but-2-enoyl)piperidin-2-yl)imidazo[1,5-a]pyrazin-1-yl)-N-(4-propylpyridin-2-yl)benzamide]
< 10 nM | ≥ 1000 nM | CCCc1ccnc(NC(=O)c2ccc(-c3nc([C@H](C)NC(=O)/C=C/COC)n4ccnc(C)c34)cc2)c1 [Example 36, (S,E)-4-(3-(1-(4-methoxybut-2-enamido)ethyl)-8-methylimidazo[1,5-a]pyrazin-1-yl)-N-(4-propylpyridin-2-yl)benzamide]
< 10 nM | ≥ 1000 nM | Cc1nccn2c([C@@H]3CCCCN3C(=O)/C=C/CN(C)C)nc(-c3ccc(C(=O)Nc4cc(C(F)(F)F)ccn4)cc3)c12 [Example 37, (S,E)-4-(3-(1-(4-(dimethylamino)but-2-enoyl)piperidin-2-yl)-8-methylimidazo[1,5-a]pyrazin-1-yl)-N-(4-(trifluoromethyl)pyridin-2-yl)benzamide]
< 10 nM | ≥ 1000 nM | CC#CC(=O)N[C@@H](C)c1nc(-c2ccc(C(=O)Nc3cc(CCC)ccn3)cc2)c2c(C)nccn12 [Example 38, (S)-4-(3-(1-but-2-ynamidoethyl)-8-methylimidazo[1,5-a]pyrazin-1-yl)-N-(4-propylpyridin-2-yl)benzamide]
